From paper PMC6423129, “Activity and structural analysis of GRL-117C: a novel small molecule CCR5 inhibitor active against R5-tropic HIV-1s” (Scientific Reports, 2019)

Experiments:
Type in all cases: cell-based
[1] = tested on: R5-HIV-1Ba-L; test: MAGI assay using MAGI/CCR5 cells and R5-HIV-1Ba-L; details: Human immunodeficiency virus 1, BAL, Ba-L (MAGI)
Experimental: (§1) MAGI-CCR5 cells[18] were maintained in DMEM supplemented with 10% fetal calf serum (FCS: Gemini Bio-Products, West Sacramento, CA), 200 μg/ml G418, 100 μg/ml hygromycin B, and 100 μg/ml zeomycin. The Chinese hamster ovary (CHO) cells expressing CCR5[19] were maintained in Ham’s F-12 medium (GIBCO-BRL, Rockville, MD) supplemented with 10% FCS, 50 U/ml penicillin, and 50 μg/ml streptomycin in the presence of 5 μg/ml blasticidin S hydrochloride. TZM-bl cells were obtained from the NIH AIDS Reagent Program, and were cultured in DMEM with 10% FCS. Peripheral blood mononuclear cells (PBMCs) were isolated from buffy coats of HIV-1 seronegative individuals, and were activated with 10 μg/ml phytohemagglutinin (PHA) prior to use[16]. A laboratory wild-type R5-HIV-1 strain (HIV-1Ba-L)[37] was employed for drug susceptibility assays. AD101 (experimental CCR5 inhibitor) and VVC-resistant HIV clones[7],[8] were provided by Dr. John P. Moore of Cornell University for this study. The clones were propagated with activated PBMCs, and were used for the assays. A clinical HIV-1 strain, HIV-1KP-5pc, and an MVC-resistant isolate, HIV-1KP-5mvcR, were prepared and used for antiviral assays, as previously described[10],[38]. The following reagents (plasmids) for T/F HIV-1 viruses[22],[24] were obtained through the NIH AIDS Reagent Program, Division of AIDS, NIAID, NIH: pCH040.c/2625 (cat# 11740), pCH106.c/2633 (cat# 11743), pTHRO.c/2626 (cat# 11745), and pCH058.c/2960 (cat# 11856), from Dr. John Kappes and Dr. Christina Ochsenbauer.
(§2) Antiviral assays using PHA-PBMCs (p24 assay) were conducted as previously reported[16],[38]. In brief, PHA-PBMCs (1 × 10^6/ml) were exposed to 50 TCID50 of HIV-1Ba-L or drug-resistant HIV-1 infectious clones in the presence or absence of various concentrations of drugs; 10-fold serial dilutions were performed in 96-well microculture plates. The amount of p24 antigens produced by the cells was determined on day 7 in the culture via a commercially available ELISA kit (PerkinElmer). The p24 production level in drug-free control cell cultures was used as the reference. […] Antiviral assays using MAGI-CCR5 cells (MAGI assay) were conducted as previously reported[16],[39]. Single-round virus infection assays using TZM-bl cells infected with R5-HIV-1s (HIV-1YU2, HIV-1KP-5pc, and HIV-1KP-5mvcR)[10] were also conducted as previously described.

[2] = tested on: pTHRO.c/2626; test: MAGI assay, T/F HIV-1 clone pTHRO.c/2626; details: Human immunodeficiency virus 1, MAGI
Excerpt: (§3) We also examined the activity of GRL-compounds against Transmitter/founder (T/F) HIV-1 viruses. T/F viruses are involved in the initial infection. It is considered that T/F viruses virtually always use CCR5 rather than CXCR4 and infect T cells but not macrophages because […] of CD4 is needed to mediate virus entry for the initial transmission[20]–[24]. […] We obtained four HIV-1 T/F infectious clones. We determined the antiviral activity of GRL-117C, GRL-10007C and GRL-10018C on these HIV-1 clones using MAGI assay.
as §1, with “A clinical HIV-1 strain, HIV-1KP-5pc, and an MVC-resistant isolate, HIV-1KP-5mvcR, were prepared and used for antiviral assays, as previously described[10],[38].” left out
as §2

[3] = tested on: pCH058.c/2960; test: MAGI assay, T/F HIV-1 clone pCH058.c/2960; details: Human immunodeficiency virus 1, MAGI
Excerpt: as §3
as §1, with “A clinical HIV-1 strain, HIV-1KP-5pc, and an MVC-resistant isolate, HIV-1KP-5mvcR, were prepared and used for antiviral assays, as previously described[10],[38].” left out
as §2

[4] = tested on: HIV-1KP-5pc; test: TZM-bl single-round infection assay, HIV-1KP-5pc; details: Human immunodeficiency virus 1, TZM-bl
Experimental: as §1, §2

[5] = tested on: HIV-1KP-5mvcR; test: TZM-bl single-round infection assay, MVC-resistant HIV-1KP-5mvcR
Experimental: as §1, §2

[6] = Human immunodeficiency virus 1, TZM-bl

SMILES: C=CCN(C(=O)OCc1ccc([N+](=O)[O-])cc1)C1CC2CCC(C1)N2CCC(C)(CN(C)S(=O)(=O)c1ccccc1)c1ccccc1 (stereo not drawn) [GRL-117C]
- IC50 [1]: 0.6 nM
- IC90 [1]: 8.9 nM
- IC50 [2]: 2.1 ± 0.2 nM
- IC50 [3]: 3.2 ± 1 nM
- IC90 [4]: 767 nM
- IC50 ([4]; KP-5pc, drug-sensitive clinical strain, TZM-bl assay, mean ± SD): 160 ± 30 nM
- IC50 against HIV-1KP-5mvcR relative to that of MVC ([5]; 686 nM vs MVC 41 nM): more than 10 fold
- IC50 [5, 6]: 686 ± 89 nM
- IC90 [5, 6]: > 100 nM
